Data from PubChem BioAssay AID328 (DTP/NCI, 2004).
“And” between values parts separate entries of the source, which are not always exact repeats. Identical values can stand only once. Inconclusive results and toxic doses are left out.

System: BDF1 mice, P388 leukemia ip, median survival T/C
Assay: NCI In Vivo Anticancer Drug Screen. Data for tumor model P388 Leukemia (intraperitoneal) in B6D2F1 (BDF1) mice
Conditions: endpoint: median survival time, higher = longer survival
Outline: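 Reported as T/C, where T is the survival measurement in dosed animals and C the same measurement in vehicle controls.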

[1] = dose: 50.0 mg/kg/injection, schedule: Q01DX009 (ip), vehicle: other
[2] = dose: 100.0 mg/kg/injection, schedule: Q01DX009 (ip), vehicle: other
[3] = dose: 200.0 mg/kg/injection, schedule: Q01DX009 (ip), vehicle: other
[4] = dose: 25.0 mg/kg/injection, schedule: Q01DX009 (ip), vehicle: saline with Tween-80
[5] = dose: 25.0 mg/kg/injection, schedule: Q04DX003 (ip), vehicle: water
[6] = dose: 50.0 mg/kg/injection, schedule: Q01DX009 (ip), vehicle: saline with Tween-80
[7] = dose: 50.0 mg/kg/injection, schedule: Q04DX003 (ip), vehicle: water
[8] = dose: 100.0 mg/kg/injection, schedule: Q01DX009 (ip), vehicle: saline with Tween-80
[9] = dose: 100.0 mg/kg/injection, schedule: Q04DX003 (ip), vehicle: water
[10] = dose: 200.0 mg/kg/injection, schedule: Q04DX003 (ip), vehicle: water
[11] = dose: 400.0 mg/kg/injection, schedule: Q04DX003 (ip), vehicle: water
[12] = dose: 25.0 mg/kg/injection, schedule: Q01DX009 (ip), vehicle: Klucel (hydroxypropylcellulose) (HPC)
[13] = dose: 50.0 mg/kg/injection, schedule: Q01DX009 (ip), vehicle: Klucel (hydroxypropylcellulose) (HPC)
[14] = dose: 100.0 mg/kg/injection, schedule: Q01DX009 (ip), vehicle: Klucel (hydroxypropylcellulose) (HPC)
[15] = dose: 100.0 mg/kg/injection, schedule: Q01DX009 (ip), vehicle: saline
[16] = dose: 200.0 mg/kg/injection, schedule: Q01DX009 (ip), vehicle: saline
[17] = dose: 25.0 mg/kg/injection, schedule: Q04DX003 (ip), vehicle: saline with Tween-80
[18] = dose: 50.0 mg/kg/injection, schedule: Q01DX009 (ip), vehicle: water

## CC(=O)c1ccc2ccccc2c1OC(=O)c1cccnc1
[1]
  T/C: 100 % of control
[2]
  T/C: 109 % of control
[3]
  T/C: 118 % of control

## CCOC(=O)c1cnn(C)c1N
[4]
  T/C: 93 % of control
[5]
  T/C: 109 % of control
[6]
  T/C: 102 % of control
[7]
  T/C: 99 % of control
[8]
  T/C: 100 % of control
[9]
  T/C: 114 % of control
[10]
  T/C: 91 % of control
[11]
  T/C: 116 % of control

## CC(=O)Nc1ccc(OCCOC(=O)Nc2c(Cl)cccc2Cl)cc1
[12]
  T/C: 111 % of control
[13]
  T/C: 100 % of control
[14]
  T/C: 100 % of control

## Cn1cc(S(C)=O)c(=O)c2ccccc21 (configuration not stated)
dose: 50.0 mg/kg/injection, schedule: Q01DX009 (ip), vehicle: saline
  T/C: 99 % of control
[15]
  T/C: 99 % of control
[16]
  T/C: 111 % of control

## C/C=C/N=NNc1ccccc1OC
[17]
  T/C: 113 % of control
dose: 50.0 mg/kg/injection, schedule: Q04DX003 (ip), vehicle: saline with Tween-80
  T/C: 104 % of control
dose: 100.0 mg/kg/injection, schedule: Q04DX003 (ip), vehicle: saline with Tween-80
  T/C: 104 % of control

## CCN(CC)CCCNc1ncnc2onc(-c3ccccc3)c12
[1]
  T/C: 107 % of control
[2]
  T/C: 105 % of control
[3]
  T/C: 96 % of control

## COc1ccc(/C=C/C(=O)c2ccc(OC)c(OC)c2)cc1OC
[8]
  T/C: 90 % of control
dose: 200.0 mg/kg/injection, schedule: Q01DX009 (ip), vehicle: saline with Tween-80
  T/C: 104 % of control
dose: 400.0 mg/kg/injection, schedule: Q01DX009 (ip), vehicle: saline with Tween-80
  T/C: 118 % of control

## CCCCCC(C)(C1=NC(C)(C)CC(C)O1)c1ccccc1 (configuration not stated)
dose: 12.5 mg/kg/injection, schedule: Q01DX001 (ip), vehicle: saline sonified
  T/C: 100 % of control
dose: 25.0 mg/kg/injection, schedule: Q01DX001 (ip), vehicle: saline sonified
  T/C: 100 % of control
dose: 50.0 mg/kg/injection, schedule: Q01DX001 (ip), vehicle: saline sonified
  T/C: 100 % of control

## Cc1ccc(Cc2c(C=O)nc(N)[nH]c2=O)c2ccccc12
dose: 12.5 mg/kg/injection, schedule: Q01DX009 (ip), vehicle: saline with Tween-80
  T/C: 112 % of control
[4]
  T/C: 96 % of control
[6]
  T/C: 102 % of control
dose: 50.0 mg/kg/injection, schedule: Q01DX009 (ip), vehicle: suspension in saline
  T/C: 97 % of control
dose: 100.0 mg/kg/injection, schedule: Q01DX009 (ip), vehicle: suspension in saline
  T/C: 94 % of control
dose: 200.0 mg/kg/injection, schedule: Q01DX009 (ip), vehicle: suspension in saline
  T/C: 106 % of control

## CCCC(=O)OCC1OC(n2cnc3c(=S)nc(N)[nH]c32)C(OC(=O)CCC)C1OC(=O)CCC (configuration not stated)
dose: 16.5 mg/kg/injection, schedule: Q04DX003 (ip), vehicle: saline with Tween-80
  T/C: 177 % of control
[17]
  T/C: 154 % of control
dose: 37.5 mg/kg/injection, schedule: Q04DX003 (ip), vehicle: saline with Tween-80
  T/C: 161 % of control

## OCCN(CCO)c1cc(OCc2ccccc2)cc(OCc2ccccc2)c1
dose: 6.25 mg/kg/injection, schedule: Q01DX009 (ip), vehicle: water
  T/C: 103 % of control
dose: 12.5 mg/kg/injection, schedule: Q01DX009 (ip), vehicle: water
  T/C: 99 % of control
dose: 25.0 mg/kg/injection, schedule: Q01DX009 (ip), vehicle: water
  T/C: 91 % of control and 103 % of control
[18]
  T/C: 100 % of control
[7]
  T/C: 100 % of control
[9]
  T/C: 100 % of control
[10]
  T/C: 95 % of control
[11]
  T/C: 100 % of control

## Cc1ccc(NC(=O)CO)cc1
[13]
  T/C: 102 % of control
[14]
  T/C: 97 % of control
dose: 200.0 mg/kg/injection, schedule: Q01DX009 (ip), vehicle: Klucel (hydroxypropylcellulose) (HPC)
  T/C: 104 % of control

## CCOC(=O)CN1C(=O)S/C(=C/c2ccc([N+](=O)[O-])o2)C1=O
dose: 100.0 mg/kg/injection, schedule: Q04DX002 (ip), vehicle: saline with Tween-80
  T/C: 94 % of control
dose: 200.0 mg/kg/injection, schedule: Q04DX002 (ip), vehicle: saline with Tween-80
  T/C: 105 % of control

## CC1=CC(=O)NP(=O)(Oc2ccc3ccccc3c2)N1 (configuration not stated)
dose: 25.0 mg/kg/injection, schedule: Q04DX003 (ip), vehicle: saline + alcohol
  T/C: 106 % of control
dose: 50.0 mg/kg/injection, schedule: Q04DX003 (ip), vehicle: saline + alcohol
  T/C: 98 % of control
dose: 100.0 mg/kg/injection, schedule: Q04DX003 (ip), vehicle: saline + alcohol
  T/C: 100 % of control
dose: 200.0 mg/kg/injection, schedule: Q04DX003 (ip), vehicle: saline + alcohol
  T/C: 94 % of control
dose: 400.0 mg/kg/injection, schedule: Q04DX003 (ip), vehicle: saline + alcohol
  T/C: 95 % of control

## CC1CN(Cc2ccc([N+](=O)[O-])cc2)CC(C)N1N (configuration not stated)
dose: 3.12 mg/kg/injection, schedule: Q04DX003 (ip), vehicle: saline with Tween-80
  T/C: 96 % of control
dose: 6.25 mg/kg/injection, schedule: Q04DX003 (ip), vehicle: saline with Tween-80
  T/C: 116 % of control
dose: 12.5 mg/kg/injection, schedule: Q04DX003 (ip), vehicle: saline with Tween-80
  T/C: 107 % of control
[17]
  T/C: 107 % of control

## O=C(NN(Cn1c(=S)sc2ccccc21)Cn1c(=S)sc2ccccc21)c1ccncc1
dose: 6.25 mg/kg/injection, schedule: Q01DX009 (ip), vehicle: Klucel (hydroxypropylcellulose) (HPC)
  T/C: 102 % of control
dose: 12.5 mg/kg/injection, schedule: Q01DX009 (ip), vehicle: Klucel (hydroxypropylcellulose) (HPC)
  T/C: 120 % of control
[12]
  T/C: 118 % of control

## O=S(=O)(CCl)OCCCCOS(=O)(=O)CCl
dose: 66.0 mg/kg/injection, schedule: Q01DX009 (ip), vehicle: saline
  T/C: 104 % of control

## ClCCc1cnc[nH]1
dose: 6.25 mg/kg/injection, schedule: Q04DX003 (ip), vehicle: water
  T/C: 104 % of control
dose: 12.5 mg/kg/injection, schedule: Q04DX003 (ip), vehicle: water
  T/C: 108 % of control
[5]
  T/C: 112 % of control
[7]
  T/C: 105 % of control
[9]
  T/C: 98 % of control

## CNC(C)(C)CO
[15]
  T/C: 105 % of control
dose: 100.0 mg/kg/injection, schedule: Q04DX003 (ip), vehicle: saline
  T/C: 104 % of control
[16]
  T/C: 115 % of control
dose: 200.0 mg/kg/injection, schedule: Q04DX003 (ip), vehicle: saline
  T/C: 95 % of control
dose: 400.0 mg/kg/injection, schedule: Q04DX003 (ip), vehicle: saline
  T/C: 95 % of control

## O=C1c2cccc(O)c2C(=O)c2c(O)cc(CO)cc21
dose: 8.8 mg/kg/injection, schedule: Q01DX010 (ip), vehicle: other
  T/C: 100 % of control
dose: 10.0 mg/kg/injection, schedule: Q01DX010 (ip), vehicle: carboxymethylcellulose (CMC)
  T/C: 122 % of control
dose: 10.0 mg/kg/injection, schedule: Q01DX010 (ip), vehicle: other
  T/C: 108 % of control
dose: 13.0 mg/kg/injection, schedule: Q01DX010 (ip), vehicle: other
  T/C: 111 % of control
dose: 16.0 mg/kg/injection, schedule: Q01DX009 (ip), vehicle: gum acacia
  T/C: 97 % of control
dose: 20.0 mg/kg/injection, schedule: Q01DX009 (ip), vehicle: gum acacia
  T/C: 106 % of control
dose: 20.0 mg/kg/injection, schedule: Q01DX010 (ip), vehicle: carboxymethylcellulose (CMC)
  T/C: 94 % of control
dose: 20.0 mg/kg/injection, schedule: Q01DX010 (ip), vehicle: other
  T/C: 154 % of control
dose: 25.0 mg/kg/injection, schedule: Q01DX009 (ip), vehicle: gum acacia
  T/C: 97 % of control
dose: 40.0 mg/kg/injection, schedule: Q01DX010 (ip), vehicle: carboxymethylcellulose (CMC)
  T/C: 116 % of control
dose: 40.0 mg/kg/injection, schedule: Q01DX010 (ip), vehicle: other
  T/C: 120 % of control
dose: 80.0 mg/kg/injection, schedule: Q01DX010 (ip), vehicle: carboxymethylcellulose (CMC)
  T/C: 122 % of control

## CC(C)(N)CCC(C)(C)NCCCN
[18]
  T/C: 92 % of control
dose: 100.0 mg/kg/injection, schedule: Q01DX009 (ip), vehicle: water
  T/C: 103 % of control
[9]
  T/C: 100 % of control
dose: 200.0 mg/kg/injection, schedule: Q01DX009 (ip), vehicle: water
  T/C: 106 % of control
[10]
  T/C: 103 % of control
[11]
  T/C: 92 % of control
